From ChEMBL document CHEMBL1201862, “PubChem BioAssay data set” (2004)
The source made the active and inactive calls.

How the values were obtained:
[1] = target: T1, Tyrosine-protein phosphatase non-receptor type 7 (Homo sapiens, UniProt P35236); type: functional
T1 sequence (P35236 whole entry): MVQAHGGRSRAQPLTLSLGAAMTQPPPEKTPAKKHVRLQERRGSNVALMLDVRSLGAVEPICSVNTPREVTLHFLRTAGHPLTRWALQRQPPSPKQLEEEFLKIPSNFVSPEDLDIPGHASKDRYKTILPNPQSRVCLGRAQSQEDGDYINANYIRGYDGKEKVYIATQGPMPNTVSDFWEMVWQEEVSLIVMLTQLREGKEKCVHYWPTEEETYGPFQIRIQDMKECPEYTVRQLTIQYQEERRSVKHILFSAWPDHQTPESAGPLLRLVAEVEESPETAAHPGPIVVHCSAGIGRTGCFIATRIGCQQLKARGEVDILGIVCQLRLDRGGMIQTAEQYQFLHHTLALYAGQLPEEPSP

[2] = target: Glyceraldehyde-3-phosphate dehydrogenase (Homo sapiens, UniProt P04406)
[3] = cytotoxicity in HPDE-C7 cells, cell-based, fluorescence, HTS (AID 430); type: functional; details: Homo sapiens
Large T antigen = Large T antigen (Simian virus 40, UniProt P03070); type: functional, Betapolyomavirus macacae;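 also: Confirmatory-stage PubChem screen for compounds that inhibit SV40 T antigen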
[4] = cytotoxicity in KRAS-transformed pancreatic duct cells, primary screen, cell-based, fluorescence, HTS (AID 431); type: functional; details: Homo sapiens;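 also: cell line used: HPDE-C7K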
[5] = target: T2, Dual specificity protein phosphatase 6 (Rattus norvegicus, UniProt Q64346)
T2 sequence (Q64346 whole entry): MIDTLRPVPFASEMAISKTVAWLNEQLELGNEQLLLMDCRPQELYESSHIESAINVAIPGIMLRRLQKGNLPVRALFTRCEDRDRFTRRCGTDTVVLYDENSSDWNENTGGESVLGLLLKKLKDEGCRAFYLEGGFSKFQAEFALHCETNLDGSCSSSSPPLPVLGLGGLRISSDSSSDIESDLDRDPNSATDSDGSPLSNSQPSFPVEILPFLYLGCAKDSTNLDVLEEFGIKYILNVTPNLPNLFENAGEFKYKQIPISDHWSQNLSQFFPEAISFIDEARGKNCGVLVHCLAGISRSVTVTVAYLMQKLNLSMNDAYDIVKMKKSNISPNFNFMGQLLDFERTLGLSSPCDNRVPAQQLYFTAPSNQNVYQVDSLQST

Ephrin type-A receptor 4 = Ephrin type-A receptor 4 (Mus musculus, UniProt Q03137); assay: inhibitors of EphA4 binding to KYL peptide, primary screen, biochemical, colorimetric, mouse EphA4 (AID 689); type: functional
[6] = target: Dual specificity protein phosphatase 3 (Homo sapiens, UniProt P51452); assay: SAR VHR1 Fluorescent Assay for In Vitro dose response studies. [Related pubchem assays (depositor defined):AID1654, AID1661, AID1878, AID1992, AID2004, AID2070, AID2085]; type: functional
[7] = target: T1, Tyrosine-protein phosphatase non-receptor type 7; assay: redox-dependent HePTP inhibition, mechanism study, biochemical, fluorescence (AID 2068); type: functional
Cysteine protease ATG4B = target: T3, Cysteine protease ATG4B (Homo sapiens, UniProt Q9Y4P1); type: functional;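 also: Fluorescence-based dose-response confirmation assay measuring inhibition of ATG4B activity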
T3 sequence (Q9Y4P1 whole entry): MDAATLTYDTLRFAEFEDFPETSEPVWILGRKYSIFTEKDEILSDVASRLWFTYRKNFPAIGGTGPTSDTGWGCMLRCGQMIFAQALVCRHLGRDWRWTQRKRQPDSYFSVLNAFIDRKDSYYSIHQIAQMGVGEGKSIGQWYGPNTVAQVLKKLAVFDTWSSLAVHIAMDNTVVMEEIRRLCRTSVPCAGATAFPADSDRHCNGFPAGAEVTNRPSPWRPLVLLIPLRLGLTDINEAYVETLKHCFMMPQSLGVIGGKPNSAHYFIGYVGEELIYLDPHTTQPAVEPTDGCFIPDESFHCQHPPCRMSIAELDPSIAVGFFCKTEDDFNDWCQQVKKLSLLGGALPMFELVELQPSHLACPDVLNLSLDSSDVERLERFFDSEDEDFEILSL

Phospholipase A2 = Phospholipase A2 (Homo sapiens, UniProt P04054); type: functional;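 also: confirmatory dose-response counterscreen on phospholipase A2, testing hits that came from an ultra-high-throughput screen for ATG4B inhibitors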
[8] = target: T2, Dual specificity protein phosphatase 6; type: functional
T-cell = assay: inhibitors of CD8+ T cell–vesicle binding, dose response, mouse 2C CD8+ T cells, flow cytometry (AID 485284); type: functional
[9] = target: T4, Short transient receptor potential channel 4 (Mus musculus, UniProt Q9QUQ5); assay: TRPC4 positive allosteric modulators, dose response, cell-based, HEK293 TRPC4/mu-opioid, Fluo-4 calcium, EC20 DAMGO (AID 434941); type: functional
T4 sequence (Q9QUQ5 whole entry): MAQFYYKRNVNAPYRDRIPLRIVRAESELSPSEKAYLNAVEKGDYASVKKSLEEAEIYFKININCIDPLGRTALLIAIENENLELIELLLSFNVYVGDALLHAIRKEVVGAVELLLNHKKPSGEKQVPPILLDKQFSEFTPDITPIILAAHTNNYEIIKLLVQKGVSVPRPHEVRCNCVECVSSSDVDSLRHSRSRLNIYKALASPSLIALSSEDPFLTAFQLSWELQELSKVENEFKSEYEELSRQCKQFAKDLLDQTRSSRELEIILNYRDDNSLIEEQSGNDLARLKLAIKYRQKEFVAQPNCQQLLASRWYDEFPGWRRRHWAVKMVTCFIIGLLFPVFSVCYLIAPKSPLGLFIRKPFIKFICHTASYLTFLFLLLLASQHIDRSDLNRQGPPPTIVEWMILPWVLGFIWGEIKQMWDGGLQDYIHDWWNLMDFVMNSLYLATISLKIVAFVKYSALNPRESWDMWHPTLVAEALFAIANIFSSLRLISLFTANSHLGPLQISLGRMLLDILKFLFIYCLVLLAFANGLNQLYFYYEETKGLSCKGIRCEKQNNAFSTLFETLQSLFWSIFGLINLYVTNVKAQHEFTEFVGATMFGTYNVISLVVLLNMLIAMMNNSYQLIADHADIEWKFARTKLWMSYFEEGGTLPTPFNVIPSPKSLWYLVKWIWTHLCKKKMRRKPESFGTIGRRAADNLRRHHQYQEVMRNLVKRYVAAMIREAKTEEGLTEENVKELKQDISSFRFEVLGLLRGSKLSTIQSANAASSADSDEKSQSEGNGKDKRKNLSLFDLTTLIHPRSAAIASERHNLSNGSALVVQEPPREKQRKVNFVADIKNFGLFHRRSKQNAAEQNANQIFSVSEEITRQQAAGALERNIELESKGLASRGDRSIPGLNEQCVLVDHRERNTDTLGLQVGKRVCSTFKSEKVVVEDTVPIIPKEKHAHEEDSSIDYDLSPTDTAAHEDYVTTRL

Vero = assay: host cell cytotoxicity of antiviral hits, dose response, cytotoxicity control for West Nile virus antiviral project, secondary assay (AID 1650); type: functional; details: Chlorocebus sabaeus
[10] = inhibitors of intracellular T. cruzi replication, confirmation, NIH3T3 host cells, beta-gal luminescence (AID 2044); type: functional, cell-based;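 also: intracellular parasites grown in NIH/3T3 mouse fibroblasts as host cells; luminescent beta-galactosidase reporter signal from transgenic T. cruzi replicating inside host cells; inhibitors lower the luminescence signal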
[11] = cytotoxicity toward NIH3T3 fibroblasts, dose response, counter-screen, cell-based, ATP luminescence, mouse fibroblasts (AID 2010); type: functional;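 also: cells exposed to compound for about 90 hours before reading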
[12] = target: T5, Ubiquitin-conjugating enzyme E2 N (Homo sapiens, UniProt P61088); type: functional;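 also: Dose-response confirmation in a TR-FRET assay detecting UBC13-driven polyubiquitin chain formation, inhibition measured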
T5 sequence (P61088 whole entry): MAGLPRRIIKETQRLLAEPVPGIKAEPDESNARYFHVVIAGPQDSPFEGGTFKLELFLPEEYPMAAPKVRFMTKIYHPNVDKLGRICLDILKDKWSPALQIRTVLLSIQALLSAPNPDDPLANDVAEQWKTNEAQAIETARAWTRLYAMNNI

ORF 73 = target: T6, ORF 73 (Human herpesvirus 8, UniProt O40947); assay: inhibitors of C-LANA binding to LBS DNA, dose response, biochemical, fluorescence polarization, cherry-picked samples (AID 504725); parameters: species or system Human gammaherpesvirus 8;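 also: fluorescence polarization of a labeled DNA duplex reporting LANA DNA binding; potency is for inhibitors that block LANA binding to the DNA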
T6 sequence (O40947 whole entry): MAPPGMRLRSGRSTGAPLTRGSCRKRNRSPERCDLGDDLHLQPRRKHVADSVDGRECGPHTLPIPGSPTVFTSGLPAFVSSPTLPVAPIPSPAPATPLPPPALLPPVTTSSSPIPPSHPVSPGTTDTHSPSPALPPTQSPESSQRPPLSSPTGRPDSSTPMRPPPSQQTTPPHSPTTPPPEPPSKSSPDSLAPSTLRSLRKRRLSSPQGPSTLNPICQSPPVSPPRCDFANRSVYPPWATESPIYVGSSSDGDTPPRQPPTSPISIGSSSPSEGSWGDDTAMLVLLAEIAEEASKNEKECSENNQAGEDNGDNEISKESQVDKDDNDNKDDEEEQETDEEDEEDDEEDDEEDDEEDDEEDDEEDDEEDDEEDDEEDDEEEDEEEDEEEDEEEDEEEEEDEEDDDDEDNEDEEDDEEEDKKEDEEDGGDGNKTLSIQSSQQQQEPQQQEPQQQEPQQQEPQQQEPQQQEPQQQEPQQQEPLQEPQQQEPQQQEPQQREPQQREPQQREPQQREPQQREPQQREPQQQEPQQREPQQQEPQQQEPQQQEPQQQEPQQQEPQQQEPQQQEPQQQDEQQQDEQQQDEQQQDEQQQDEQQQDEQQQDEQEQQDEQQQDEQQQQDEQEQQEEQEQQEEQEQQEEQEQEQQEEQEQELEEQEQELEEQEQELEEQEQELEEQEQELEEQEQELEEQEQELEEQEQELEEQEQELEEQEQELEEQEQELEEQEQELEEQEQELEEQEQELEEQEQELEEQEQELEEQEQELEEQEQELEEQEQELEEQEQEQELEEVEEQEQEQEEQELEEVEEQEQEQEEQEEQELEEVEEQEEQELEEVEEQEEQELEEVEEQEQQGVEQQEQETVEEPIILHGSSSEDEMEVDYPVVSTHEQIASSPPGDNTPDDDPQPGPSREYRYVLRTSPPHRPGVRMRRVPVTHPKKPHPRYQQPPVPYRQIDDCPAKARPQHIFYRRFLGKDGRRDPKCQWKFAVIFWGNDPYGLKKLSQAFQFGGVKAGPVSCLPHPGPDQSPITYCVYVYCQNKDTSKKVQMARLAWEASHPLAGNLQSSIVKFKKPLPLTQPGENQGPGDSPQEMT

Troponin, cardiac muscle = Troponin, cardiac muscle (Homo sapiens, UniProt P19429+P45379+P63316); assay: inhibitors of cardiac thin filament calcium sensitivity, dose response, biochemical, fluorescence, cardiac regulated thin filaments, triplicate IC50 (AID 504742); type: protein-complex assay
[13] = target: T7, Rac GTPase-activating protein 1 (Homo sapiens, UniProt Q9H0H5); assay: MgcRacGAP GTPase-activating activity inhibitors, confirmation, biochemical, ADP Hunter fluorescence, primary and confirmatory (AID 624330); type: functional
T7 sequence (Q9H0H5 whole entry): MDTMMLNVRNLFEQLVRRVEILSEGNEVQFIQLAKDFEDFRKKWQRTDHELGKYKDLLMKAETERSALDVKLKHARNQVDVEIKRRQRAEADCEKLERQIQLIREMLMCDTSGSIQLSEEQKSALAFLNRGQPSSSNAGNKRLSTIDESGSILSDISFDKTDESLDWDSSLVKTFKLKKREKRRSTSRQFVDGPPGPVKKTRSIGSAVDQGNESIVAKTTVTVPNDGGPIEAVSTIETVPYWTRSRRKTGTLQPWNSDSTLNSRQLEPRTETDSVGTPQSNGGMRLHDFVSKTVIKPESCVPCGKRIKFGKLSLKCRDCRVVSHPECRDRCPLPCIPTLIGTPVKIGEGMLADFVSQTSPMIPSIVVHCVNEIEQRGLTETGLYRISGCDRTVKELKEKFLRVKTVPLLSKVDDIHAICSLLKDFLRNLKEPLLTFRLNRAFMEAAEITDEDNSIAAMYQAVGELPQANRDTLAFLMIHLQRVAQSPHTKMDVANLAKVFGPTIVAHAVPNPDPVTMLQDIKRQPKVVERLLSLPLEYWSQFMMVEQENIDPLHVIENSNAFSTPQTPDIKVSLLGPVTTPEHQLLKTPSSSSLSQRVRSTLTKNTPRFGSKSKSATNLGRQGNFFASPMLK

Ephrin type-A receptor 4, sequence (Q03137 whole entry): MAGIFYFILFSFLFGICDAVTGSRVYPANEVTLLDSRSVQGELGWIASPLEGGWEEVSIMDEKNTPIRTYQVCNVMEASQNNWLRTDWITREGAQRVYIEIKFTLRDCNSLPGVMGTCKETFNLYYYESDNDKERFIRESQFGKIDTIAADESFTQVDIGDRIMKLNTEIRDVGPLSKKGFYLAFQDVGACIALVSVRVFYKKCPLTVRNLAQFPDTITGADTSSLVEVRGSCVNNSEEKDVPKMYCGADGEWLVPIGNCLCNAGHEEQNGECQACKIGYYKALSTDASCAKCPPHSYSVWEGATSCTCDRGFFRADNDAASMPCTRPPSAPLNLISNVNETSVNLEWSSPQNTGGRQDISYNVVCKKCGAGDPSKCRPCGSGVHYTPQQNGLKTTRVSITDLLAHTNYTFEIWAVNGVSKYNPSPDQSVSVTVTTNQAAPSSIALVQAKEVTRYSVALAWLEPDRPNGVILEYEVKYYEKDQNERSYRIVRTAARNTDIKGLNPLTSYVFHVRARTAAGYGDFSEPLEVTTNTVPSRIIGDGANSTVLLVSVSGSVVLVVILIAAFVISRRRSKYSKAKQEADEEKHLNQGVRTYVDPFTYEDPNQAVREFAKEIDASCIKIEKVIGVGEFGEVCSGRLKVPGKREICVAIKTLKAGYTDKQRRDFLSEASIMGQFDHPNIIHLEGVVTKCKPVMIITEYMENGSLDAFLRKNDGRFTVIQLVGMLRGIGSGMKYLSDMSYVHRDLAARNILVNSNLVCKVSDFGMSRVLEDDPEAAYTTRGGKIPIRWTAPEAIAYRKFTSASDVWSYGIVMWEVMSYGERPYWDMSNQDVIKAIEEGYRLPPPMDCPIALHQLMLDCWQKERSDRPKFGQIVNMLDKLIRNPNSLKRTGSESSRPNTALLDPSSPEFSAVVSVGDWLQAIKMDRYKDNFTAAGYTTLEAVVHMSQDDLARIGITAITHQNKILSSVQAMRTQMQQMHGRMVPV
Large T antigen, sequence (P03070 whole entry): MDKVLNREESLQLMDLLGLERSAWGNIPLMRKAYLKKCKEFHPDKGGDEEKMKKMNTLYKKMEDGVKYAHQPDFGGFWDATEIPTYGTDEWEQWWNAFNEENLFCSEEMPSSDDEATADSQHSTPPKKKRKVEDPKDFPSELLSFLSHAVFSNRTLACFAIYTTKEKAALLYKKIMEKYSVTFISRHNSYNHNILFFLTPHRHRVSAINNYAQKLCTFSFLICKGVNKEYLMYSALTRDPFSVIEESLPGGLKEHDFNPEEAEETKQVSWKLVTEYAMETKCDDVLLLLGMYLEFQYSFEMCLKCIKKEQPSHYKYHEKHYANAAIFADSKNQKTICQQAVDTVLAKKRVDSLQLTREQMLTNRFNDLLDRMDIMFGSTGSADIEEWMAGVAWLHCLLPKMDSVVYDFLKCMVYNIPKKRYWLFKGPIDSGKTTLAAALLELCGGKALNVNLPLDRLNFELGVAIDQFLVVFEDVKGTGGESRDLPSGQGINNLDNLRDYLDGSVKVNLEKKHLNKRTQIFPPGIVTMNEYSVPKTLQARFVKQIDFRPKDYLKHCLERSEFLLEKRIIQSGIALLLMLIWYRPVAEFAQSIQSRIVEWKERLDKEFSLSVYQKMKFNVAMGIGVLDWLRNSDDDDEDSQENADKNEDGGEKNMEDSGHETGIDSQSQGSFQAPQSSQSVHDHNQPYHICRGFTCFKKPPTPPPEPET
Dual specificity protein phosphatase 3, sequence (P51452 whole entry): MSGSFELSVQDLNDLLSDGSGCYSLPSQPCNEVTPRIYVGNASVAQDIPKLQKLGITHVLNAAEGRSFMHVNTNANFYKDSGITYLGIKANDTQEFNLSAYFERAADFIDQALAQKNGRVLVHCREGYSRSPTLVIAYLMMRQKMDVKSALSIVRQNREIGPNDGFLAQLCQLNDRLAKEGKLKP
Phospholipase A2, sequence (P04054 whole entry): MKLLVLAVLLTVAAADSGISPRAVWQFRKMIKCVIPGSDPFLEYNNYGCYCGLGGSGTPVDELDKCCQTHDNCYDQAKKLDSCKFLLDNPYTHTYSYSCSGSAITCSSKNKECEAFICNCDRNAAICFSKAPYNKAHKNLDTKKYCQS
Glyceraldehyde-3-phosphate dehydrogenase, sequence (P04406 whole entry): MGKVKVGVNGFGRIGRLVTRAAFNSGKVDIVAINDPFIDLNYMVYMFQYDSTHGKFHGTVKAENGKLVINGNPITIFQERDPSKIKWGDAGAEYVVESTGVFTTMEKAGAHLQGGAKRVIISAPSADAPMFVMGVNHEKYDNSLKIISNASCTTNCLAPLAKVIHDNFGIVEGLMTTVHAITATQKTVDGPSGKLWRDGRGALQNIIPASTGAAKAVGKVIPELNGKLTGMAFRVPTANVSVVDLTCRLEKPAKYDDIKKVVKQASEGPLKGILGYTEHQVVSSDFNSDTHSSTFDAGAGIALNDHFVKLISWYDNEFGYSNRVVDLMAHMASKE

For Clc1ccccc1CSc1nnc(-c2ccco2)c(-c2ccco2)n1, the IC50 [1] was 10.4 µM (active), the IC50 [2] was > 100 µM (not active) and the EC50 [3] was 15 µM (active). For the same compound, the IC50 (Large T antigen) was 54.4 µM (active), the EC50 [4] was 15.4 µM (active) and the IC50 [5] was 31.2 µM (active). For the same compound, the IC50 (Ephrin type-A receptor 4) was 2.46 µM (active), the IC50 [6] was 19.7 µM (active) and the IC50 [7] was 0.329 µM (active). For the same compound, the IC50 (Cysteine protease ATG4B) was 11.4 µM (active), the IC50 (Phospholipase A2) was 7.53 µM (active) and the IC50 [8] was 24.2 µM (active).

For Cc1cccc(NC(=O)C2CCN(S(=O)(=O)c3c(C)nc(O)nc3O)CC2)c1, the EC50 (T-cell) was 8.65 µM (active).

For Cc1cc2oc(C(=O)N(Cc3ccccc3)C3CCS(=O)(=O)C3)cc(=O)c2cc1Cl (stereo not drawn), the EC50 [9] was 3.76 µM (active).

In the case of CCC1(C)NC(=O)N(CC(=O)N2N=C(c3ccccc3)CC2c2ccc(OC)cc2)C1=O (stereo not drawn), the EC50 (T-cell) is reported as 16.1 µM (active).

For CCCCN(CC)CCNC(=O)c1cc2c(=O)n(C)c3ccccc3c2s1, the CC50 (Vero) was 69 µM (active), the EC50 [10] was 2.29 µM (active) and the EC50 [11] was > 60 µM (not active). For the same compound, the IC50 [12] was > 20 µM (inactive) and the EC50 [9] was 0.07 µM (active).

With O=C1C(=Cc2ccco2)CCC1=Cc1ccco1 the AC50 (ORF 73) was 63 µM (active), the IC50 (Troponin, cardiac muscle) was > 71.5 µM (inactive) and the IC50 [13] was 32.4 µM (active).
